According to publication PMC10609608, “Design, Synthesis, In Vitro Biological Evaluation and In Silico Molecular Docking Study of Benzimidazole-Based Oxazole Analogues: A Promising Acetylcholinesterase and Butyrylcholinesterase Inhibitors” (Molecules, 2023):

Experiments:
[1] = biological target: butyrylcholinesterase (BuChE) (Homo sapiens, UniProt P06276); test: biochemical; conditions: in vitro; donepezil as standard; read-out: BuChE IC50 ± SEM
Method: (§1) According to previously established protocols, in vitro AChE and BuChE inhibition profiles were evaluated with slight modifications.

[2] = biological target: acetylcholinesterase (AChE) (Homo sapiens, UniProt P22303); test: biochemical; conditions: in vitro; donepezil as standard; read-out: AChE IC50 ± SEM
Method: as §1

Sequence of butyrylcholinesterase (BuChE) (P06276 29-602): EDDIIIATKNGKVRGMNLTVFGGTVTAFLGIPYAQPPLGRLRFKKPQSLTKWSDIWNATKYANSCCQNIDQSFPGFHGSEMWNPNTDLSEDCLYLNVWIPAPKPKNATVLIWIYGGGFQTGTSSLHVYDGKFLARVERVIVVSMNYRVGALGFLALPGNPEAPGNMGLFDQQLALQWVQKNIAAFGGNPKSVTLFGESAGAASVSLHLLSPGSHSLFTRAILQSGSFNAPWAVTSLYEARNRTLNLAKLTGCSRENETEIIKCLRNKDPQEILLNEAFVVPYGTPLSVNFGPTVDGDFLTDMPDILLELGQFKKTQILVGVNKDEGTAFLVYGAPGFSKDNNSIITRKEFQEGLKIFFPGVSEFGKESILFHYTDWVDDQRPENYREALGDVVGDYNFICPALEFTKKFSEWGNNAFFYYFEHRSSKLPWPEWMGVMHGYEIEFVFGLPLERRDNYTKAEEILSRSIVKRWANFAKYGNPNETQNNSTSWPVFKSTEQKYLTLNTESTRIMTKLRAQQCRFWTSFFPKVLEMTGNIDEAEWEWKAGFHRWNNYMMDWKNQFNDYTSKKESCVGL
Sequence of acetylcholinesterase (AChE) (P22303 32-614): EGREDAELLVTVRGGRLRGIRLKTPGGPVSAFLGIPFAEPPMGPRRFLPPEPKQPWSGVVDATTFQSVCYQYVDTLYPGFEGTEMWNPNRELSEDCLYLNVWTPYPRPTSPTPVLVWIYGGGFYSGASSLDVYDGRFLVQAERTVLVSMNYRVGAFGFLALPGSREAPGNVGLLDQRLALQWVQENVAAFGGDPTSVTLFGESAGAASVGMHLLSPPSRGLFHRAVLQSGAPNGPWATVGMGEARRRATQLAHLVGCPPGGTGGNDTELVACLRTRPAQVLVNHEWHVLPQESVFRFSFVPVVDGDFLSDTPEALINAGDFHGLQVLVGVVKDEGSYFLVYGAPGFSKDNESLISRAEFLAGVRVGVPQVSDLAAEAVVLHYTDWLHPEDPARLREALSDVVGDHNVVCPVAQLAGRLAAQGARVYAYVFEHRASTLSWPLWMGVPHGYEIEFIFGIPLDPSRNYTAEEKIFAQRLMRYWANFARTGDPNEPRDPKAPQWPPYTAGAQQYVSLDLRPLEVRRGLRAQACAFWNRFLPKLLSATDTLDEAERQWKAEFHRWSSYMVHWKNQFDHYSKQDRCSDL

Molecule `COc1ccccc1-c1coc(N/N=C(/CSc2nc3ccccc3[nH]2)c2ccc(C)cc2)n1` [Compound 8, (E)-2-(2-(2-((1H-Benzo[d]imidazol-2-yl)thio)-1-(p-tolyl)ethylidene)hydrazinyl)-4-(2-methoxyphenyl)oxazole] has an IC50 [1] of 7.2 ± 0.1 µM and an IC50 [2] of 5.3 ± 0.2 µM.
With `Cc1ccc(/C(CSc2nc3ccccc3[nH]2)=N\Nc2nc(-c3ccc(Cl)cc3Cl)co2)cc1` [Compound 14, (E)-2-(2-(2-((1H-Benzo[d]imidazol-2-yl)thio)-1-(p-tolyl)ethylidene)hydrazinyl)-4-(2,4-dichlorophenyl)oxazole] the IC50 [1] was 0.3 ± 0.05 µM and the IC50 [2] was 0.2 ± 0.05 µM.
In the case of `Cc1ccc(/C(CSc2nc3ccccc3[nH]2)=N\Nc2nc(-c3ccccc3[N+](=O)[O-])co2)cc1` [Compound 2, (E)-2-(2-(2-((1H-Benzo[d]imidazol-2-yl)thio)-1-(p-tolyl)ethylidene)hydrazinyl)-4-(2-nitrophenyl)oxazole], the IC50 [1] is reported as 1.9 ± 0.1 µM and the IC50 [2] is reported as 1.6 ± 0.01 µM.
For `O=[N+]([O-])c1cccc(-c2coc(N/N=C(/CSc3nc4ccccc4[nH]3)c3ccc(Cl)cc3)n2)c1` [Compound 11, (E)-2-(2-(2-((1H-Benzo[d]imidazol-2-yl)thio)-1-(4-chlorophenyl)ethylidene)hydrazi-nyl)-4-(3-nitrophenyl)oxazole], the IC50 [1] was 1.2 ± 0.01 µM and the IC50 [2] was 0.7 ± 0.05 µM.
For `COc1cccc(-c2coc(N/N=C(/CSc3nc4ccccc4[nH]3)c3ccc(C)cc3)n2)c1` [Compound 5, (E)-2-(2-(2-((1H-Benzo[d]imidazol-2-yl)thio)-1-(p-tolyl)ethylidene)hydrazinyl)-4-(3-methoxyphenyl)oxazole], the IC50 [1] was 11.5 ± 0.2 µM and the IC50 [2] was 9.8 ± 0.2 µM.
With `Cc1ccc(/C(CSc2nc3ccccc3[nH]2)=N\Nc2nc(-c3cccc([N+](=O)[O-])c3)co2)cc1` [Compound 3, (E)-2-(2-(2-((1H-Benzo[d]imidazol-2-yl)thio)-1-(p-tolyl)ethylidene)hydrazinyl)-4-(3-nitrophenyl)oxazole] the IC50 [1] was 5.8 ± 0.1 µM and the IC50 [2] was 4.4 ± 0.1 µM.
With `COc1ccc(/C(CSc2nc3ccccc3[nH]2)=N\Nc2nc(-c3ccccc3[N+](=O)[O-])co2)cc1` [Compound 1, (E)-2-(2-(2-((1H-Benzo[d]imidazol-2-yl)thio)-1-(4-methoxyphenyl)ethylidene)hydrazinyl)-4-(2-nitrophenyl)oxazole] the IC50 [1] was 1.8 ± 0.1 µM and the IC50 [2] was 1.1 ± 0.1 µM.
`Cc1ccc(/C(CSc2nc3ccccc3[nH]2)=N\Nc2nc(-c3ccc(Cl)c(Cl)c3)co2)cc1` [Compound 6, (E)-2-(2-(2-((1H-Benzo[d]imidazol-2-yl)thio)-1-(p-tolyl)ethylidene)hydrazinyl)-4-(3,4-dichlorophenyl)oxazole] showed an IC50 [1] of 1.1 ± 0.05 µM and an IC50 [2] of 0.4 ± 0.05 µM.
`O=[N+]([O-])c1ccccc1-c1coc(N/N=C(/CSc2nc3ccccc3[nH]2)c2ccccc2)n1` [Compound 17, (E)-2-(2-(2-((1H-Benzo[d]imidazol-2-yl)thio)-1-phenylethylidene)hydrazinyl)-4-(2-nitrophenyl)oxazole] was tested, and the IC50 [1] was 3.5 ± 0.1 µM and the IC50 [2] was 2.5 ± 0.1 µM.
With `CN(C)c1ccc(/C(CSc2nc3ccccc3[nH]2)=N\Nc2nc(-c3ccc(Br)cc3)co2)cc1` [Compound 7, (E)-4-(2-((1H-Benzo[d]imidazol-2-yl)thio)-1-(2-(4-(4-bromophenyl)oxazol-2-yl)hydrazono)ethyl)-N,N-dimethylaniline] the IC50 [1] was 16.3 ± 0.3 µM and the IC50 [2] was 12.6 ± 0.3 µM.
For `COc1cccc(-c2coc(N/N=C(/CSc3nc4ccccc4[nH]3)c3ccc(Cl)cc3)n2)c1` [Compound 19, (E)-2-(2-(2-((1H-Benzo[d]imidazol-2-yl)thio)-1-(4-chlorophenyl)ethylidene)hydrazinyl)-4-(3-methoxyphenyl)oxazole], the IC50 [1] was 3.7 ± 0.1 µM and the IC50 [2] was 2.7 ± 0.2 µM.
`COc1cccc(-c2coc(N/N=C(/CSc3nc4ccccc4[nH]3)c3ccccc3)n2)c1` [Compound 15, (E)-2-(2-(2-((1H-Benzo[d]imidazol-2-yl)thio)-1-phenylethylidene)hydrazinyl)-4-(3-methoxyphenyl)oxazole] was tested, and the IC50 [1] was 7.2 ± 0.1 µM and the IC50 [2] was 5.4 ± 0.1 µM.
`Cc1ccc(/C(CSc2nc3ccccc3[nH]2)=N\Nc2nc(-c3ccccc3)co2)cc1` [Compound 13, (E)-2-(2-(2-((1H-Benzo[d]imidazol-2-yl)thio)-1-(p-tolyl)ethylidene)hydrazinyl)-4-phenyloxazole] was tested, and the IC50 [1] was 9.7 ± 0.1 µM and the IC50 [2] was 8.1 ± 0.1 µM.
`O=[N+]([O-])c1ccccc1-c1coc(N/N=C(/CSc2nc3ccccc3[nH]2)c2ccc(Cl)cc2)n1` [Compound 18, (E)-2-(2-(2-((1H-Benzo[d]imidazol-2-yl)thio)-1-(4-chlorophenyl)ethylidene)hydrazinyl)-4-(2-nitrophenyl)oxazole] was tested, and the IC50 [1] was 1.7 ± 0.1 µM and the IC50 [2] was 0.8 ± 0.1 µM.
In the case of `O=[N+]([O-])c1cccc(-c2coc(N/N=C(/CSc3nc4ccccc4[nH]3)c3ccccc3)n2)c1` [Compound 10, (E)-2-(2-(2-((1H-Benzo[d]imidazol-2-yl)thio)-1-phenylethylidene)hydrazinyl)-4-(3-nitrophenyl)oxazole], the IC50 [1] is reported as 2.1 ± 0.1 µM and the IC50 [2] is reported as 1.4 ± 0.1 µM.
For `Cc1ccc(-c2coc(N/N=C(/CSc3nc4ccccc4[nH]3)c3ccc(-c4ccccc4)cc3)n2)cc1` [Compound 16, (E)-2-(2-(2-((1H-Benzo[d]imidazol-2-yl)thio)-1-([1,1′-biphenyl]-4-yl)ethylidene) Hydrazinyl)-4-(p-tolyl)oxazole], the IC50 [1] was 9.3 ± 0.1 µM and the IC50 [2] was 6.1 ± 0.1 µM.
In the case of `Cc1ccc(/C(CSc2nc3ccccc3[nH]2)=N\Nc2nc(-c3ccc(C)cc3)co2)cc1` [Compound 4, (E)-2-(2-(2-((1H-Benzo[d]imidazol-2-yl)thio)-1-(p-tolyl)ethylidene)hydrazinyl)-4-(p-tolyl)oxazole], the IC50 [1] is reported as 8.3 ± 0.2 µM and the IC50 [2] is reported as 6.5 ± 0.2 µM.
